Experimental data taken from US20200246493A1, “DRUG-IODINATED OIL DISPERSION, METHOD FOR PREPARING SAME AND ITS APPLICATION IN EMBOLIZATION TREATMENT FOR LIVER CANCER” (Xiamen University, priority 2019, published 2020).

Settings: fluorescence intensity over time

fluorescence half-life: about three
SMILES: CC1(C)C(/C=C/C=C/C=C/C=C2\N(CCCCS(=O)(=O)O)c3ccc4ccccc4c3C2(C)C)=[N+](CCCCS(=O)(=O)[O-])c2ccc3ccccc3c21 [ICG, indocyanine green]
